Like-named read-outs stand apart in the source and are kept apart here.
Tests used:
[1] = Brain tissue binding, equilibrium dialysis (rat); format: in vitro ADME
Procedure: Thawing of the frozen brain tissue homogenate (stored at −80° C.). Frozen brain tissue homogenate was thawed immediately in a room temperature bath. Note: Only use brain tissue homogenate that has been thawed no more than once.
Preparation of working solutions. The working solutions of test compound and control compound propranolol were prepared in DMSO at the concentration of 200 μM. And then 4 μL of working solution was removed to mix with 796 μL of rat brain tissue homogenate to achieve a final concentration of 1 μM (0.5% DMSO). Brain tissue homogenate samples were vortexed thoroughly.
Preparation of dialysis membranes. The dialysis membranes were soaked in ultrapure water for 60 minutes to separate strips, then in 20% ethanol for 20 minutes, finally in dialysis buffer for 20 minutes.
Procedure for equilibrium dialysis. The dialysis apparatus was assembled according to the manufacturer's instruction. Each cell was filled with 150 μL of brain tissue homogenate sample and dialyzed against equal volume of dialysis buffer (PBS). The assay was performed in duplicate. The dialysis plate was sealed and incubated in an incubator at 37° C. with 5% CO2 at approximately 100 rpm for 6 hours. At the end of dialysis, seal was removed and 50 μL of samples from both buffer and brain tissue homogenate chambers were transferred into separate tubes in plate.
Procedure for sample analysis. 50 μL of brain tissue homogenate was added to each buffer samples and an equal volume of PBS was supplemented to the collected brain tissue homogenate sample. 400 μL of room temperature quench solution (acetonitrile containing internal standards (IS, 100 nM Alprazolam, 500 nM Labetalol and 2 μM Ketoprofen)) was added to precipitate protein. Samples in plate were vortexed for 5 minutes and centrifuged at 3,220 g for 30 minutes at room temperature. And then 100 μL of the supernatant was transferred to a new 96-well plate with 100 μL water for LC-MS/MS analysis.
Data analysis. All calculations were carried out using Microsoft Excel. […]
Fumeans=unbound fraction measured with brain tissue homogenate […]

[2] = Rat CNS exposure measurement (plasma, CSF, brain); format: in vivo, male SD rats; details: male, SD
[3] = Mouse pharmacokinetic studies; format: in vivo, male C57BL/6J mice; set-up: AUClast/D: unit not given here; details: PO 5 mg/kg; for AUC(0-inf) / AUC(0-t) / Cmax / Tmax / half-life / MRT inf: male, C57BL/6J; for MRT inf: read-out: MRTInf—obs
Procedure: (§1) The rat pharmacokinetics studies of exemplary compounds 03-3, 03-5, and 03-115 were conducted with male SD rats. These rats were typically about 6-8 weeks old, weighing 200 g to 300 g. Animals were fasted overnight and free access to food 4 hours after dosing. A required volume of vehicle was added to reach the target concentration of the test article and vehicle component to prepare for the dosing. The dosing vehicle was PEG400 or 30% PEG400 in saline for IV, or 0.5% methylcellulose in water for PO. For IV dosing, the animals were administered intravenously via tail vein. For PO dosing, the animals were administered via oral gavage. After dosing, blood sample was collected (˜0.2 mL per time point) through jugular vein or heart puncture. Blood of each sample was transferred into plastic micro centrifuge tubes containing EDTA-K2. Collection tubes with blood samples and anticoagulant were inverted several times for proper mixing of the tube contents and then placed on wet ice. The blood samples were centrifuged at 2000 g for 5 minutes at 4° C. to obtain plasma which was stored in a freezer at −75±15° C. prior to analysis. Samples were analyzed using LC-MS/MS. WinNonlin were used for pharmacokinetic calculations.
Mouse pharmacokinetics studies of exemplar compounds 03-3 and 03-5 were conducted substantially similarly to the rat pharmacokinetic studies, instead using male C57BL/6J mice. These mice were typically about 6-8 weeks old, weighing 20 g to 30 g. Animals were free access to food before dosing. Sample amount was ˜0.03 mL per time point and sample site was dorsal metatarsal or heart puncture.

[4] = Dog pharmacokinetic studies; format: in vivo, male Beagle dogs; details: for AUC(0-inf) / Cmax / MRT / Tmax: male, Beagle
Procedure: as §1
Dog pharmacokinetics studies of exemplary compounds 03-3, 03-5, and 03-115 were conducted substantially similarly to the rat pharmacokinetic studies, instead using male Beagle dogs. Animals for PO studies were food fasted overnight prior to dosing and were fed approximately 2 hours after dosing. Animals for IV studies had free access to food and water. Blood samples were collected through venipuncture of peripheral veins except the dosing vein.

[5] = Monkey pharmacokinetic studies; format: in vivo, male Non-Naïve Cynomolgus Monkeys; set-up: AUClast/D: unit not given here; details: PO 0.3 mg/kg; for AUC(0-inf) / AUC(0-t) / Cmax / Tmax / half-life / MRT inf: male, cynomolgus monkey; for MRT inf: read-out: MRTInf—obs
Procedure: as §1
Monkey pharmacokinetics studies of exemplary compounds 03-3, 03-5, and 03-115 were conducted substantially similarly to the rat pharmacokinetic studies, instead using male Non-Naïve Cynomolgus Monkeys. Animals for PO studies were food fasted overnight prior to dosing and were fed approximately 2 hours after dosing. Animals for IV studies had free access to food and water. Blood samples were collected through venipuncture of peripheral veins except the dosing vein.

CC(C)(C)NC[C@H](O)c1cccc(C(F)(F)F)n1 [Compound 03-3]
fraction unbound at 6 h, 1 μM ([1]; rat, brain homogenate): 0.48 | concentration at 1 h ([2]; CSF, iv, 1 mg/kg, IV 1 mg/kg, read-out: Concentration, CSF): 142 ng/mL | concentration at 1 h ([2]; brain, iv, 1 mg/kg, IV 1 mg/kg, read-out: Concentration, Brain): 680 ng/g | concentration at 1 h ([2]; plasma, iv, 1 mg/kg, IV 1 mg/kg, read-out: Concentration, Plasma): 199 ng/mL | AUClast/D [3]: 774 | AUC—% Extrap—obs [3]: 0.958% | F [3]: 85.1% | AUC(0-inf) ([3]; plasma): 3910 ng·h/mL | AUC(0-t) ([3]; plasma): 3870 ng·h/mL | Cmax ([3]; plasma): 1020 ng/mL | Tmax ([3]; plasma): 0.25 h | half-life ([3]; plasma): 3.78 h | MRT inf ([3]; plasma): 4.08 h | F ([4]; PO 1 mg/kg): 111% | F ([4]; PO 2.5 mg/kg): 194% | AUC(0-inf) ([4]; plasma, PO 1 mg/kg): 584 ng·h/mL | Cmax ([4]; plasma, PO 1 mg/kg): 227 ng/mL | MRT ([4]; plasma, PO 1 mg/kg): 1.93 h | Tmax ([4]; plasma, PO 1 mg/kg): 0.5 h | AUC(0-inf) ([4]; plasma, PO 2.5 mg/kg): 1590 ng·h/mL | Cmax ([4]; plasma, PO 2.5 mg/kg): 413 ng/mL | MRT ([4]; plasma, PO 2.5 mg/kg): 3.19 h | Tmax ([4]; plasma, PO 2.5 mg/kg): 0.5 h | AUClast/D [5]: 761 | AUC—% Extrap—obs [5]: 1.87% | F [5]: 44.6% | AUC(0-inf) ([5]; plasma): 232 ng·h/mL | AUC(0-t) ([5]; plasma): 228 ng·h/mL | Cmax ([5]; plasma): 46.6 ng/mL | Tmax ([5]; plasma): 1 h | half-life ([5]; plasma): 4.32 h | MRT inf ([5]; plasma): 4.99 h

CC(C)(C)NC[C@H](O)c1cccc(C#N)n1 [Compound 03-5, (S)-6-(2-(tert-butylamino)-1-hydroxyethyl)picolinonitrile]
fraction unbound at 6 h, 1 μM ([1]; rat, brain homogenate): 0.95 | concentration at 1 h ([2]; CSF, IV 1 mg/kg, read-out: Concentration, CSF): 113 ng/mL | concentration at 1 h ([2]; CSF, PO 5 mg/kg, read-out: Concentration, CSF): 242 ng/mL | concentration at 1 h ([2]; brain, IV 1 mg/kg, read-out: Concentration, Brain): 267 ng/g | concentration at 1 h ([2]; brain, PO 5 mg/kg, read-out: Concentration, Brain): 497 ng/g | concentration at 1 h ([2]; plasma, IV 1 mg/kg, read-out: Concentration, Plasma): 184 ng/mL | concentration at 1 h ([2]; plasma, PO 5 mg/kg, read-out: Concentration, Plasma): 642 ng/mL | AUClast/D [3]: 1214 | AUC—% Extrap—obs [3]: 0.0845% | F [3]: 163% | AUC(0-inf) ([3]; plasma): 6080 ng·h/mL | AUC(0-t) ([3]; plasma): 6070 ng·h/mL | Cmax ([3]; plasma): 1940 ng/mL | Tmax ([3]; plasma): 0.917 h | half-life ([3]; plasma): 2.51 h | MRT inf ([3]; plasma): 2.43 h | F ([4]; PO 0.3 mg/kg): 72% | F ([4]; PO 1 mg/kg): 70% | AUC(0-inf) ([4]; plasma, PO 0.3 mg/kg): 55.4 ng·h/mL | Cmax ([4]; plasma, PO 0.3 mg/kg): 43.2 ng/mL | MRT ([4]; plasma, PO 0.3 mg/kg): 1.22 h | Tmax ([4]; plasma, PO 0.3 mg/kg): 0.42 h | AUC(0-inf) ([4]; plasma, PO 1 mg/kg): 273 ng·h/mL | Cmax ([4]; plasma, PO 1 mg/kg): 164 ng/mL | MRT ([4]; plasma, PO 1 mg/kg): 1.37 h | Tmax ([4]; plasma, PO 1 mg/kg): 0.33 h | AUClast/D [5]: 1144 | AUC—% Extrap—obs [5]: 2.13% | F [5]: 88.3% | AUC(0-inf) ([5]; plasma): 351 ng·h/mL | AUC(0-t) ([5]; plasma): 343 ng·h/mL | Cmax ([5]; plasma): 66.2 ng/mL | Tmax ([5]; plasma): 1 h | half-life ([5]; plasma): 4.53 h | MRT inf ([5]; plasma): 5.11 h

Cc1ncccc1[C@@H](O)CNC(C)(C)C [Compound 03-115]
fraction unbound at 6 h, 1 μM ([1]; 1 μM, rat brain tissue homogenate, dialysis 6 hours, read-out: BTB (rat), percent of unbound fraction): 1 | concentration at 1 h ([2]; in vivo, SC 1 mg/kg, read-out: Concentration, Plasma): 149 ng/mL | concentration at 1 h ([2]; in vivo, sc, 1 mg/kg, SC 1 mg/kg, read-out: Concentration, Brain): 142 ng/g | concentration at 1 h ([2]; in vivo, sc, 1 mg/kg, SC 1 mg/kg, read-out: Concentration, CSF): 56.2 ng/mL | F [3]: 112% | AUC(0-inf) ([3]; in vivo): 3020 ng·h/mL | Cmax ([3]; in vivo): 1750 ng/mL | Tmax ([3]; in vivo): 0.5 h | MRT inf ([3]; in vivo): 1.8 h | F ([4]; PO 0.5 mg/kg): 53% | F ([4]; PO 1.5 mg/kg): 71% | AUC(0-inf) ([4]; in vivo, PO 0.5 mg/kg): 132 ng·h/mL | Cmax ([4]; in vivo, PO 0.5 mg/kg): 72.3 ng/mL | MRT ([4]; in vivo, PO 0.5 mg/kg): 1.82 h | Tmax ([4]; in vivo, PO 0.5 mg/kg): 0.5 h | AUC(0-inf) ([4]; in vivo, PO 1.5 mg/kg): 537 ng·h/mL | Cmax ([4]; in vivo, PO 1.5 mg/kg): 387 ng/mL | MRT ([4]; in vivo, PO 1.5 mg/kg): 1.69 h | Tmax ([4]; in vivo, PO 1.5 mg/kg): 0.33 h | F [5]: 71% | AUC(0-inf) ([5]; in vivo): 261 ng·h/mL | Cmax ([5]; in vivo): 67 ng/mL | Tmax ([5]; in vivo): 1.17 h | MRT inf ([5]; in vivo): 3.46 h

From US10947196B2, “Beta adrenergic agonist and methods of using the same” (CURASEN THERAPEUTICS, INC., priority 2019, dated 2021)
